In patent publication US10738033B2, “Trk inhibition” (NantBio, Inc., priority 2017, dated 2020):

Target: T1, TrkA(h) (Homo sapiens, UniProt P04629)
T1 construct: purchased Millipore (KinaseProfiler service)
Assay: KinaseProfiler (Millipore) radiometric kinase inhibition assay
Type: biochemical
Settings: compound concentration 1 μM
Method: The KinaseProfiler™ Service Assay Protocols (Millipore) were used to test the kinase inhibiting activity of novel compounds from this invention. To do this, the buffer composition was as follows: 20 mM MOPS, 1 mM EDTA, 0.01% Brij-35, 5% Glycerol, 0.1% β-mercaptoethanol, 1 mg/mL BSA. Test compounds were initially dissolved in DMSO at the desired concentration, then serially diluted into the kinase assay buffer. In a final reaction volume of 25 μL, TrkA(h) (5-10 mU) is incubated with 8 mM MOPS pH 7.0, 0.2 mM EDTA, 200 μM LRRASLG (Kemptide), 10 mM MgAcetate and [γ^33P-ATP]. The reaction was initiated by the addition of the MgATP mix. After incubation for 40 minute at room temperature, the reaction was stopped by addition of 5 μL of a 3% phosphoric acid solution. 10 μL of the reaction was then spotted onto a P30 filtermat and washed three times for 5 minutes in 50 mM phosphoric acid and once in methanol prior to drying and scintillation counting. Wells containing substrate but no kinase and wells containing a phosphopeptide control were used to set 0% and 100% phosphorylation value, respectively.

T1 sequence (P04629 33-796): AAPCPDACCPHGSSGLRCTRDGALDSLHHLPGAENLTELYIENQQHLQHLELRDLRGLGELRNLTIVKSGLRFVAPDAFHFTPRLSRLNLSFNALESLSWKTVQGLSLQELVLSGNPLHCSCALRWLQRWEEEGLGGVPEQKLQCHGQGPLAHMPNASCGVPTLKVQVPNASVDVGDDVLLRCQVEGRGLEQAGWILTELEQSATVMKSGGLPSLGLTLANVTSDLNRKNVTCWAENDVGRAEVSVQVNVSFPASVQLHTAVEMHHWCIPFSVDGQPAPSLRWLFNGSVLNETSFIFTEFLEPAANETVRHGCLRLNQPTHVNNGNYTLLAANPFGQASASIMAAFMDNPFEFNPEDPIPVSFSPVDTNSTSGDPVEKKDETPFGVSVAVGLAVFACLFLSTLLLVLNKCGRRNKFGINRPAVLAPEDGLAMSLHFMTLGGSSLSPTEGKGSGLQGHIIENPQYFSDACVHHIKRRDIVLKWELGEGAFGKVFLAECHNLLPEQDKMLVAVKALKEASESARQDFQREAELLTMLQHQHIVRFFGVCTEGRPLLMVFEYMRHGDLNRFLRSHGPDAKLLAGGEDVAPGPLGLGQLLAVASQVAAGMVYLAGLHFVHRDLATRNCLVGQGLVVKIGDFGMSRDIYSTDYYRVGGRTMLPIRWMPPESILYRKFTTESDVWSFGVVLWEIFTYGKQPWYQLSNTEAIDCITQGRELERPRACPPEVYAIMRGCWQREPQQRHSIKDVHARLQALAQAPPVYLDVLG

inhibition at 1 µM | SMILES
101% | c1ccc(C2CCCN2c2cc(Nc3cc(C4CC4)[nH]n3)ncn2)cc1 (stereo not drawn) [Example 24]
100% | Cc1ccc(C2CCCN2c2cc(Nc3cc(C4CC4)[nH]n3)ncn2)cc1 (stereo not drawn) [Example 25]
98% | FC(F)(F)c1ccc(C2CCCN2c2cc(Nc3cc(C4CC4)[nH]n3)ncn2)cc1 (stereo not drawn) [Example 26]
101% | COc1ccc(C2CCCN2c2cc(Nc3cc(C4CC4)[nH]n3)ncn2)cc1 (stereo not drawn) [Example 27]
103% | Fc1ccc(C2CCCN2c2cc(Nc3cc(C4CC4)[nH]n3)ncn2)cc1 (stereo not drawn) [Example 28]
105% | Clc1ccc(C2CCCN2c2cc(Nc3cc(C4CC4)[nH]n3)ncn2)cc1 (stereo not drawn) [Example 29]
97% | Cc1cccc(C2CCCN2c2cc(Nc3cc(C4CC4)[nH]n3)ncn2)c1 (stereo not drawn) [Example 30]
61% | FC(F)(F)c1cccc(C2CCCN2c2cc(Nc3cc(C4CC4)[nH]n3)ncn2)c1 (stereo not drawn) [Example 31]
91% | COc1cccc(C2CCCN2c2cc(Nc3cc(C4CC4)[nH]n3)ncn2)c1 (stereo not drawn) [Example 32]
103% | Fc1cccc(C2CCCN2c2cc(Nc3cc(C4CC4)[nH]n3)ncn2)c1 (stereo not drawn) [Example 33]
101% | Clc1cccc(C2CCCN2c2cc(Nc3cc(C4CC4)[nH]n3)ncn2)c1 (stereo not drawn) [Example 34]
92% | Cc1ccccc1C1CCCN1c1cc(Nc2cc(C3CC3)[nH]n2)ncn1 (stereo not drawn) [Example 35]
93% | FC(F)(F)c1ccccc1C1CCCN1c1cc(Nc2cc(C3CC3)[nH]n2)ncn1 (stereo not drawn) [Example 36]
101% | COc1ccccc1C1CCCN1c1cc(Nc2cc(C3CC3)[nH]n2)ncn1 (stereo not drawn) [Example 37]
95% | Fc1ccccc1C1CCCN1c1cc(Nc2cc(C3CC3)[nH]n2)ncn1 (stereo not drawn) [Example 38]
97% | Clc1ccccc1C1CCCN1c1cc(Nc2cc(C3CC3)[nH]n2)ncn1 (stereo not drawn) [Example 39]
102% | CN(C)c1ccc(C2CCCN2c2cc(Nc3cc(C4CC4)[nH]n3)ncn2)cc1 (stereo not drawn) [Example 40]
101% | CN(C)c1cccc(C2CCCN2c2cc(Nc3cc(C4CC4)[nH]n3)ncn2)c1 (stereo not drawn) [Example 41]
101% | Fc1cccc(F)c1C1CCCN1c1cc(Nc2cc(C3CC3)[nH]n2)ncn1 (stereo not drawn) [Example 42]
105% | Fc1ccc(C2CCCN2c2cc(Nc3cc(C4CC4)[nH]n3)ncn2)c(F)c1 (stereo not drawn) [Example 43]
103% | Fc1ccc(F)c(C2CCCN2c2cc(Nc3cc(C4CC4)[nH]n3)ncn2)c1 (stereo not drawn) [Example 44]
96% | OC1CC(c2cc(F)ccc2F)N(c2cc(Nc3cc(C4CC4)[nH]n3)ncn2)C1 (stereo not drawn) [Example 45]
100% | Clc1ccc(C2CCCN2c2cc(Nc3cc(C4CC4)[nH]n3)ncn2)cc1Cl (stereo not drawn) [Example 46]
-6% | Cc1ccc(C2CCCN2c2ncnc(Nc3cc(C4CC4)[nH]n3)c2C#N)cc1 (stereo not drawn) [Example 47]

inhibition at 1 µM | SMILES
51% | Fc1ccc(C2CCCN2c2ncnc(Nc3cc(C4CC4)[nH]n3)c2F)cc1 (stereo not drawn) [Example 48]
101% | Fc1ccc(C2CCCN2c2cc(Nc3cc(C4CCC4)[nH]n3)ncn2)cc1 (stereo not drawn) [Example 49]
99% | C/C=C/c1cc(Nc2cc(N3CCCC3c3ccc(F)cc3)ncn2)n[nH]1 (stereo not drawn) [Example 50]
79% | Fc1ccc(C2CCCN2c2cc(Nc3cc(-c4ccco4)[nH]n3)ncn2)cc1 (stereo not drawn) [Example 51]
30% | Fc1ccc(C2CCCN2c2cc(Nc3cc(-c4ccccn4)[nH]n3)ncn2)cc1 (stereo not drawn) [Example 52]
96% | CC(C)Oc1cc(Nc2cc(N3CCCC3c3ccccc3Cl)ncn2)n[nH]1 (stereo not drawn) [Example 53]
70% | Clc1ccccc1C1CCCN1c1cc(Nc2cc(C3CCCO3)[nH]n2)ncn1 (stereo not drawn) [Example 54]
6% | CC(C)(C)OC(=O)N1CCC(c2cc(Nc3cc(N4CCCC4c4ccccc4Cl)ncn3)n[nH]2)CC1 (stereo not drawn) [Example 55]
47% | Clc1ccccc1C1CCCN1c1cc(Nc2cc(-c3ccco3)[nH]n2)ncn1 (stereo not drawn) [Example 56]
44% | Fc1ccc(Nc2cc(N3CCCC3c3ccc(F)cc3)ncn2)cc1 (stereo not drawn) [Example 57]
7% | N#Cc1cnc(Nc2cc(N3CCCC3c3ccc(F)cc3)ncn2)s1 (stereo not drawn) [Example 58]
0% | CC(C)n1cc(Nc2cc(N3CCCC3c3ccc(F)cc3)ncn2)cn1 (stereo not drawn) [Example 59]
79% | Fc1ccc(C2CCCN2c2cc(Nc3n[nH]c4ccccc34)ncn2)cc1 (stereo not drawn) [Example 60]
-12% | CN1CCN(c2ccc(Nc3cc(N4CCCC4c4ccc(F)cc4)ncn3)nc2)CC1 (stereo not drawn) [Example 61]
105% | Fc1ccc(C2CCN2c2cc(Nc3cc(C4CC4)[nH]n3)ncn2)cc1 (stereo not drawn) [Example 62]
99% | c1ccc(C2CCCCN2c2cc(Nc3cc(C4CC4)[nH]n3)ncn2)cc1 (stereo not drawn) [Example 63]
85% | c1ccc(C2COCCN2c2cc(Nc3cc(C4CC4)[nH]n3)ncn2)cc1 (stereo not drawn) [Example 64]
79% | CN1CCN(c2cc(Nc3cc(C4CC4)[nH]n3)ncn2)C(c2ccccc2)C1 (stereo not drawn) [Example 65]
95% | Cc1cc(Nc2cc(N3CCCC3c3ccc(Cl)cc3)ncn2)n[nH]1 (stereo not drawn) [Example 66]
99% | CCCc1cc(Nc2cc(N3CCCC3c3ccc(Cl)cc3)ncn2)n[nH]1 (stereo not drawn) [Example 67]
100% | Nc1nc(Nc2cc(C3CC3)[nH]n2)cc(N2CCCC2c2ccc(F)cc2)n1 (stereo not drawn) [Example 71]
100% | Fc1ccc(C2CCCN2c2ncnc(Nc3cc(C4CC4)[nH]n3)n2)cc1 (stereo not drawn) [Example 73]
100% | Fc1ccc(C2CCCN2c2ncnc(Nc3cc(C4CC4)[nH]n3)n2)c(F)c1 (stereo not drawn) [Example 74]
100% | Clc1ccc(C2CCCN2c2ncnc(Nc3cc(C4CC4)[nH]n3)n2)cc1 (stereo not drawn) [Example 75]
